Data from US20220280594A1, “APPLICATION OF POLYPEPTIDE OR DERIVATIVE THEREOF” (CHENGDU HUITAI BIOMEDICINE CO., LTD., priority 2019, published 2022).

Key:
[1] = system: human thyroid cancer cells (FRO); experiment: scratch assay, migration of FRO cells; assay type: cell-based; details: 10 μM, 48 hours, control group 60.34 ± 8.32
Protocol: (§1) In the scratch assay, the cell migration rate was negatively correlated with the inhibitory effect of the drug component on tumor cell migration ability. The cell migration inhibition experiment was described as follows: tumor cells were cultured in vitro, cells in logarithmic growth phase were collected and seeded evenly in a 24-well plate at a density of 1-2×10^5 cells/well; the cells were cultured in a cell incubator until a monolayer was formed; a scratch tool was used to make a “-” (straight) scratch on the monolayer of cells; the cells were washed 1-3 times with PBS, and a medium (with 2% fetal bovine serum) containing specific test components was added to the culture. Experimental grouping: PBS control group; polypeptide or derivative thereof treatment group (N1-N54), 10 μM. Three independent parallel wells were set up in each group, and the cells were cultured continuously in a cell incubator for 48 hours. […] At least 3 representative images for each well were taken. ImageJ software was used to count the migration distance of the cells, and the cell migration rate was calculated as: cell migration rate (%)=(width of original scratch−width of current scratch)/width of original scratch×100.
This example was a scratch assay to evaluate the inhibitory effect of the polypeptide or derivative thereof (N1-N54) on the migration ability of human thyroid cancer cells (FRO). The experimental method was as described in Example 2.

[2] = system: human breast cancer cells (MDA-MB-231); experiment: scratch assay, migration of MDA-MB-231 cells; assay type: cell-based; details: MDA-MB-231, 10 μM, 48 hours; control group 36.19 ± 5.15
Protocol: as §1
This example was a scratch assay to evaluate the inhibitory effect of the polypeptide or derivative thereof (N1-N54) on the migration ability of human breast cancer cells (MDA-MB-231). The experimental method was as described in Example 2.

[3] = system: human lung cancer cells (A549) subcutaneous xenograft; experiment: lung cancer subcutaneous xenograft animal model, intravenous injection; assay type: in vivo, mice (BALB/c-nu/nu); details: intravenous 60 mg/kg once every other day, 20 days; for Weight of tumor (g) (mean ± SD): control 2.53 ± 0.17; for Volume of tumor (mm^3) (mean ± SD): control 3373.26 ± 581.44
Protocol: Experimental animals: 4-6 weeks old female immunodeficiency mice (BALB/c-nu/nu, Beijing Vital River Laboratory Animal Technology Co., Ltd.).
Subcutaneous xenograft animal model. The number of cells inoculated subcutaneously vin mice was about 2×10^6/200 μL. When the volume of the subcutaneous tumor was greater than 100 mm^3, the mice were randomly divided into groups and subjected to treatment. When the mass volume of the tumors in model control group reached 2000 mm^3 or the animal dies, the treatment ended. The animals were dissected, the tumors were taken out, and the weight and volume of the tumors were measured. During the period of the entire experiment, the mice were observed and the body weight was measured every other day.
The method used in the efficacy test on the lung cancer subcutaneous xenograft animal model was as described in Example 5. The lung cancer cells were the human lung cancer cells (A549), and the route of administration was intravenous injection. This example involved a total of 3 experiments to evaluate N1-N15, N16-N30, and N31-N54 respectively. The experimental procedure, route of administration, dosage and frequency of administration, and detection method were all consistent in the three experiments. The experimental groups were model control group and polypeptide or derivative thereof treatment groups (N1-N15, N16-N30, or N31-N54). The drug dosage of the N1-N54 treatment groups was 60 mg/kg, and the treatment time was 20 days.

[4] = system: human lung cancer cells (95D); experiment: scratch assay, migration of 95D cells; assay type: cell-based; details: 10 μM, 48 hours, control group 55.3 ± 3.19
Protocol: as §1
This example was a scratch assay to evaluate the inhibitory effect of the polypeptide or derivative thereof (N1-N54) on the migration ability of human lung cancer cells (95D). The experimental method was as described in Example 2.

[5] = system: human pancreatic cancer cells (PANC-1); experiment: transwell invasion assay, PANC-1 cells; assay type: cell-based; details: PANC-1 transwell invasion, 10 μM, 24 hours; control group 727 ± 68
Source text: The Transwell chamber system was used in the transwell cell invasion experiment. The chamber has an upper layer and a lower layer, which are separated by an artificial semipermeable membrane in the middle. The upper surface of the semipermeable membrane is coated with a layer of artificial matrigel to simulate extracellular matrix. Cells that have invaded through the matrigel and semi-permeable membrane will attach to the lower surface of the semi-permeable membrane. The invasion ability is evaluated by counting the number of cells on the lower surface of the semi-permeable membrane. The number of cells that have invaded is negatively correlated with the inhibitory effect of the drug on the invasion ability of the tumor cells. Transwell invasion assay was performed as follows: tumor cells were cultured in vitro, cells in logarithmic growth phase were collected, and cell suspension was prepared with fresh serum-free medium at a density of 2-3×10^5 cells/mL. Cells were inoculated, 100 μL/well cell suspension (serum-free medium) in the upper chamber and 600 μL/well complete culture medium in the lower chamber. After incubated in 37° C., 5% CO2 incubator for 4-5 hours, serum-free medium (100 μL/well) was added to the control group, and serum-free medium containing polypeptide or derivative thereof (N1-N54) was added to the upper chamber of the treatment group (100 μL/well), the final concentration of the peptide or derivative thereof in the upper chamber was 10 μM. The cells were incubated continuously for 24 hours, and then fixed with methanol and stained with crystal violet. Images were taken under a microscope and the number of invaded cells was counted with ImageJ.
This example was the transwell cell invasion experiment to evaluate the inhibitory effect of the polypeptide or derivative thereof (N1-N54) on the invasion ability of human pancreatic cancer cells (PANC-1). The experimental method was as described in Example 4.

[6] = system: human melanoma cells (A375); experiment: scratch assay, migration of A375 cells; assay type: cell-based; details: A375, 10 μM, 48 hours; control group 44.03 ± 6.21
Protocol: as §1
This example was a scratch assay to evaluate the inhibitory effect of the polypeptide or derivative thereof (N1-N54) on the migration ability of human melanoma cells (A375). The experimental method was as described in Example 2.

[7] = system: human non-small cell lung cancer cells (A549); experiment: scratch assay, migration of A549 cells; assay type: cell-based; details: A549, 10 μM, 48 hours; control group 75.31 ± 8.19
Protocol: as §1
This example was a scratch assay to evaluate the inhibitory effect of the polypeptide or derivative thereof (N1-N54) on the migration ability of human non-small cell lung cancer (A549). The experimental method was as described in Example 2.

[8] = system: human pancreatic cancer cells (PANC-1); experiment: scratch assay, migration of PANC-1 cells; assay type: cell-based; details: PANC-1, 10 μM, 48 hours; control group 66.65 ± 3.37
Protocol: as §1
This example was a scratch assay to evaluate the inhibitory effect of the polypeptide or derivative thereof (N1-N54) on the migration ability of human pancreatic cancer cells (PANC-1). The experimental method was as described in Example 2.

[9] = system: human colon cancer cells (HCT-116); experiment: scratch assay, migration of HCT-116 cells; assay type: cell-based; details: HCT-116, 10 μM, 48 hours; control group 47.78 ± 6.07
Protocol: as §1
This example was a scratch assay to evaluate the inhibitory effect of the polypeptide or derivative thereof (N1-N54) on the migration ability of human colon cancer cells (HCT-116). The experimental method was as described in Example 2.

Substance | Migration rate (%) (mean ± SD, P) [1] | Migration rate (%) (mean ± SD, P) [2] | Weight of tumor (g) (mean ± SD) [3] | Volume of tumor (mm^3) (mean ± SD) [3] | Migration rate (%) (mean ± SD, P) [4] | Number of cells (mean ± SD, P), invaded cells [5] | Migration rate (%) (mean ± SD, P) [6] | Migration rate (%) (mean ± SD, P) [7] | Migration rate (%) (mean ± SD, P) [8] | Migration rate (%) (mean ± SD, P) [9]
N17: SEQ ID NO: 1 with addition of two amino acids to the carboxyl terminal (YRVRFLAKENVTQDAEDNCT) | 11.38 ± 2.27,*** % | 12.04 ± 4.13,** % | 0.9 ± 0.16 | 1301.58 ± 329.64 | 18.31 ± 8.26,** % | 95 ± 6,**** | 14.35 ± 2.52,*** % | 18.31 ± 9.26,** % | 15.47 ± 5.29,*** % | 23.09 ± 2.41,*** %
N18: SEQ ID NO: 1 with addition of one amino acid at the amino terminal and one at the carboxyl terminal (FYRVRFLAKENVTQDAEDNC) | 22.96 ± 5.05% | 18.64 ± 6.98,* % | 1.3 ± 0.24 | 1161.51 ± 297.07 | 25.71 ± 4.05,*** % | 118 ± 14,**** | 12.67 ± 1.33,*** % | 55.71 ± 4.05,* % | 13.26 ± 7.39,*** % | 16.96 ± 4.87,** %
N19: SEQ ID NO: 1 with deletion of positions 1-5 and 15-18 and addition of two amino acids at the carboxyl terminal (LAKENVTQDRC) | 25.59 ± 4.08,** % | 15.23 ± 3.54,* % | 0.81 ± 0.19 | 1235.44 ± 432.58 | 42.04 ± 5.90,* % | 213 ± 20,**** | 12.93 ± 3.34,*** % | 53.74 ± 5.46,* % | 19.76 ± 7.14,*** % | 9.80 ± 2.62,*** %
N20: SEQ ID NO: 1 with addition of one amino acid at the amino terminal and deletion of position 18 (RYRVRFLAKENVTQDAED) | 24.03 ± 8.61,* % | 20.18 ± 3.38,* % | 0.56 ± 0.18 | 1072.16 ± 390.44 | 43.15 ± 5.46,* % | 273 ± 12,**** | 14.61 ± 3.12,*** % | 55.77 ± 5.06,* % | 41.56 ± 6.68,* % | 8.17 ± 1.07,*** %
N21: SEQ ID NO: 1 with deletion of positions 1-5 and 15-18 and addition of one amino acid at the amino terminal (SLAKENVTQD) | 30.45 ± 4.94,* % | 19.95 ± 5.47,* % | 0.71 ± 0.22 | 1065.78 ± 432.05 | 40.02 ± 4.20,** % | 269 ± 28,**** | 8.29 ± 3.50,*** % | 31.06 ± 4.94,** % | 10.54 ± 9.03,*** % | 12.85 ± 3.12,*** %
N22: SEQ ID NO: 1 with substitution A7R, deletion of three amino acids at the amino terminal and of positions 15-18 (RFLRKENVTQD) | 42.34 ± 4.98,* % | 16.94 ± 3.17,* % | 0.89 ± 0.19 | 1288.08 ± 577.81 | 38.35 ± 5.04,** % | 220 ± 65,**** | 5.12 ± 3.69,*** % | 33.59 ± 5.62,** % | 11.44 ± 8.52,*** % | 7.78 ± 3.07,*** %
N23: SEQ ID NO: 1 with substitution A7R, deletion of position 11 and of positions 15-18 (YRVRFLRKENTQDAED) | 34.39 ± 4.10,* % | 14.39 ± 2.33,** % | 0.65 ± 0.17 | 993.11 ± 298.65 | 30.38 ± 4.68,** % | 196 ± 26,**** | 11.13 ± 2.15,*** % | 26.03 ± 4.21,*** % | 14.16 ± 8.36,*** % | 13.08 ± 2.64,*** %
N24: SEQ ID NO: 1 with substitution A7R, deletion of positions 1-2 and of position 18 (VRFLRKENVTQDAED) | 16.54 ± 3.19,** % | 20.97 ± 3.37,* % | 0.81 ± 0.25 | 1099.3 ± 512.53 | 35.78 ± 4.79,** % | 226 ± 18,**** | 15.79 ± 4.16,** % | 31.05 ± 3.60,** % | 13.99 ± 7.57,*** % | 12.14 ± 2.49,*** %
